Measured values: ChEMBL document CHEMBL1145929, “Syntheses and binding studies of new [(aryl)(aryloxy)methyl]piperidine derivatives and related compounds as potential antidepressant drugs with high affinity for serotonin (5-HT) and norepinephrine (NE) transporters” (J Med Chem, 2003)

Tests used:
[1] = biological target: T1, Sodium-dependent serotonin transporter (Rattus norvegicus, UniProt P31652); assay: Binding affinity to the serotonin transporter (SERT) measured by displacement of [3H]paroxetine in male wistar rats
[2] = biological target: T2, 5-hydroxytryptamine receptor 1A (Rattus norvegicus, UniProt P19327); assay: Binding affinity against 5-hydroxytryptamine 1A receptor (5-HT1A) by displacement of [3H]8-OH-DPAT from rat hippocampus membranes; type: cell membranes, Membrane
T2 sequence (P19327 whole entry): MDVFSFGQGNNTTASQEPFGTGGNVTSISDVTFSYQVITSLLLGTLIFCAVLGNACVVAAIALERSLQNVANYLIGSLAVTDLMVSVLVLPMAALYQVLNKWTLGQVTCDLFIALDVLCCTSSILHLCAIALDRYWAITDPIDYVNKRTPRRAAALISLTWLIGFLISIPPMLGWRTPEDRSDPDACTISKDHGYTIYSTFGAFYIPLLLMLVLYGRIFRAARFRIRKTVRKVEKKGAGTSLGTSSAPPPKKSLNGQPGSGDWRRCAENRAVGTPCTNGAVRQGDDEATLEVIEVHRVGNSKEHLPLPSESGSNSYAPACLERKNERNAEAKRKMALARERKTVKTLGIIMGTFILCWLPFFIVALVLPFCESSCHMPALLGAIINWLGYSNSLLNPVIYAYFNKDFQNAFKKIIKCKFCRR

[3] = biological target: 5-hydroxytryptamine receptor 2A (Rattus norvegicus, UniProt P14842); assay: Binding affinity against 5-hydroxytryptamine 2A receptor by displacement of [3H]-ketanserin from rat prefrontal cerebral cortex mambranes; type: tissue-based, Frontal cortex
[4] = biological target: T1, Sodium-dependent serotonin transporter; assay: Binding affinity against serotonin transporter (SERT) by displacement of [3H]paroxetine in male wistar rats

Chain of 5-hydroxytryptamine receptor 2A (P14842 whole entry): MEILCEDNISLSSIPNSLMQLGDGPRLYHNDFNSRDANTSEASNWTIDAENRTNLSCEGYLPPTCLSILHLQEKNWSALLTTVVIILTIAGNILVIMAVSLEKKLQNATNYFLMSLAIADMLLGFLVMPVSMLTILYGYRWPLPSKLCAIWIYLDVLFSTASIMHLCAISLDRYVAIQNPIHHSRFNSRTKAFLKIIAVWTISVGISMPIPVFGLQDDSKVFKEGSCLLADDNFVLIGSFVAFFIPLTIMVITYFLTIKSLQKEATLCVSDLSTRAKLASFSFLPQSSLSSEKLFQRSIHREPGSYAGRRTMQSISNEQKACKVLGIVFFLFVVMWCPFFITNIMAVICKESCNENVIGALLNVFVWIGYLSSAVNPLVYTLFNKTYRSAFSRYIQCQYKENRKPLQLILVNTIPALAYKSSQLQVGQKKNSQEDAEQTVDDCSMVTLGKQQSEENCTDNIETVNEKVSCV
T1 sequence (P31652 whole entry): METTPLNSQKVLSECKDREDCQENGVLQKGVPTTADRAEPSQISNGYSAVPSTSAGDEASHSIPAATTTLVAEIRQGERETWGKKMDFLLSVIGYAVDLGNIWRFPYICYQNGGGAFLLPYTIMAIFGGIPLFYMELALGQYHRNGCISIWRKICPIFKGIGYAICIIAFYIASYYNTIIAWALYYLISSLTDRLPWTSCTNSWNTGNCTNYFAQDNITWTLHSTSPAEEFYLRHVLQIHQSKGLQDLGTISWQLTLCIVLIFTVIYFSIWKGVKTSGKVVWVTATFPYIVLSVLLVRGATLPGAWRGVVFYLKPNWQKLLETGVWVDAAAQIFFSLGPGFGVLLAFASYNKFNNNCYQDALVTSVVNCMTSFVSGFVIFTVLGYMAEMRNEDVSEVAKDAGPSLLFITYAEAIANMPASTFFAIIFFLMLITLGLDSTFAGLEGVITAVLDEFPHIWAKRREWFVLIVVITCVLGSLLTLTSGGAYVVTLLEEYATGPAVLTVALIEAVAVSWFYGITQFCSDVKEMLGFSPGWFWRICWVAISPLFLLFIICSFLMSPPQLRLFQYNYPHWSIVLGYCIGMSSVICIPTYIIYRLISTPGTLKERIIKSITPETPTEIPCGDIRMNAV

Structure (SMILES)	Ki [1] [µM]	IC50 [2] [µM]	IC50 [3] [µM]	IC50 [4] [µM]
Fc1ccc(C(Oc2ccccc2)C2CCCNC2)cc1 (stereo unspecified)	0.0406	> 1	> 1	–
N#Cc1ccc(OC(c2ccc(F)cc2)C2CCCNC2)cc1 (stereo unspecified)	0.04	> 1	> 1	–
Oc1cc(F)cc(OC(c2ccccc2)C2CCNCC2)c1 (stereo unspecified)	0.002	> 1	> 1	–
Ic1ccc(OC(c2ccccc2)C2CCNCC2)cc1 (stereo unspecified)	0.0206	> 1	> 1	–
Ic1cccc(OC(c2ccccc2)C2CCNCC2)c1 (stereo unspecified)	0.0037	> 1	> 1	–
COc1ccc(OC(c2ccc(F)cc2)C2CCNCC2)cc1 (stereo unspecified)	0.0009	> 1	> 1	–
N#Cc1ccc(OC(CC2CCNCC2)c2ccc(F)cc2)cc1 (stereo unspecified)	0.0169	> 1	> 1	–
COc1ccc(OC(c2ccc(F)cc2)C2CCCNC2)cc1 (stereo unspecified)	0.0208	> 1	> 1	–
Fc1ccc(C(Oc2ccc(Cl)c(Cl)c2)C2CCCNC2)cc1 (stereo unspecified)	0.0322	> 1	> 1	–
Brc1cccc(OC(c2ccccc2)C2CCNCC2)c1 (stereo unspecified)	0.01	> 1	> 1	–
Fc1ccc(C(Oc2ccc3c(c2)OCO3)C2CCCNC2)cc1 (stereo unspecified)	0.0042	> 1	> 1	–
COc1cc2c(cc1OC)CN(CCC(Oc1ccccc1F)c1ccccc1)CC2 (stereo unspecified)	0.207	> 1	> 1	–
Fc1ccc(C(Oc2ccc(C(F)(F)F)cc2)C2CCCNC2)cc1 (stereo unspecified)	0.0262	> 1	> 1	–
Clc1ccc(OC(c2ccccc2)C2CCNCC2)cc1Cl (stereo unspecified)	0.0099	> 1	> 1	–
Fc1ccccc1OC(CCN1CCc2ccccc2C1)c1ccccc1 (stereo unspecified)	–	> 1	> 1	> 1
FC(F)(F)c1cccc(OC(c2ccccc2)C2CCNCC2)c1 (stereo unspecified)	0.009	> 1	> 1	–
Fc1ccc(OC(c2ccc(Cl)cc2)C2CCNCC2)cc1 (stereo unspecified)	0.0075	> 1	> 1	–
N#Cc1ccccc1OC(c1ccccc1)C1CCNCC1 (stereo unspecified)	0.105	> 1	> 1	–
Cc1c(F)cccc1OC(c1ccccc1)C1CCNCC1 (stereo unspecified)	0.0053	> 1	> 1	–
Cc1ccc(Cl)cc1OC(c1ccccc1)C1CCNCC1 (stereo unspecified)	0.0156	> 1	> 1	–
Cc1c(Cl)cccc1OC(c1ccccc1)C1CCNCC1 (stereo unspecified)	0.0122	> 1	> 1	–
Oc1c(F)cccc1OC(c1ccccc1)C1CCNCC1 (stereo unspecified)	0.0155	> 1	> 1	–
Fc1ccc(C(Oc2ccc(Cl)cc2)C2CCCNC2)cc1 (stereo unspecified)	0.0139	> 1	> 1	–
Clc1ccc(C(Oc2ccccc2)C2CCNCC2)cc1 (stereo unspecified)	0.0194	> 1	> 1	–
Fc1ccc(OC(c2ccc(F)cc2)C2CCCNC2)cc1 (stereo unspecified)	0.0234	> 1	> 1	–
COc1ccc(OC(CC2CCNCC2)c2ccccc2)cc1 (stereo unspecified)	0.047	> 1	> 1	–
FC(F)(F)c1ccc(OC(c2ccccc2)C2CCNCC2)cc1 (stereo unspecified)	0.0171	> 1	> 1	–
FC(F)(F)c1ccccc1OC(c1ccccc1)C1CCNCC1 (stereo unspecified)	0.124	> 1	> 1	–

Structure (SMILES)	Ki [1] [µM]	IC50 [2] [µM]	IC50 [3] [µM]	IC50 [4] [µM]
Clc1ccccc1OC(c1ccccc1)C1CCNCC1 (stereo unspecified)	0.0082	> 1	> 1	–
N#Cc1cc(F)cc(OC(c2ccccc2)C2CCNCC2)c1 (stereo unspecified)	0.0026	> 1	> 1	–
Fc1ccc(OC(c2ccc(F)cc2)C2CCNCC2)cc1 (stereo unspecified)	0.0009	> 1	> 1	–
Oc1ccc(OC(c2ccccc2)C2CCNCC2)cc1F (stereo unspecified)	0.0213	> 1	> 1	–
COc1cc(F)cc(OC(c2ccccc2)C2CCNCC2)c1 (stereo unspecified)	0.0019	> 1	> 1	–
Cc1ccc(OC(c2ccc(F)cc2)C2CCCNC2)cc1 (stereo unspecified)	0.0226	> 1	> 1	–
COc1cc2c(cc1OC)CN(CCC(Oc1ccccc1C(F)(F)F)c1ccccc1)CC2 (stereo unspecified)	0.134	> 1	> 1	–
Cc1ccc(C(Oc2cccc(F)c2)C2CCNCC2)cc1 (stereo unspecified)	0.0141	> 1	> 1	–
Fc1ccc(C(Oc2cccc3ccccc23)C2CCCNC2)cc1 (stereo unspecified)	0.0215	> 1	> 1	–
N#Cc1ccc(OC(c2ccccc2)C2CCNCC2)cc1Cl (stereo unspecified)	0.0039	> 1	> 1	–
c1ccc(OC(c2ccccc2)C2CCNCC2)cc1 (stereo unspecified)	0.0023	> 1	> 1	–
Fc1ccc(OC(c2ccccc2)C2CCNCC2)cc1 (single isomer, unassigned; (-))	–	> 1	> 1	–
Fc1cc(F)cc(OC(c2ccccc2)C2CCNCC2)c1 (stereo in doubt; 15aj)	0.0034	> 1	> 1	–
c1ccc(C(Oc2cccc3ccccc23)C2CCNCC2)cc1 (stereo in doubt; 15au)	0.0083	> 1	> 1	–
Fc1ccccc1OC(c1ccccc1)C1CCNCC1 (stereo in doubt; 15b)	0.0063	> 1	> 1	–
Fc1cccc(OC(c2ccccc2)C2CCNCC2)c1 (stereo in doubt; 15j)	–	> 1	> 1	–
N#Cc1cccc(OC(c2ccccc2)C2CCNCC2)c1 (stereo in doubt; 15k)	0.001	> 1	> 1	–
Clc1cccc(OC(c2ccccc2)C2CCNCC2)c1 (stereo in doubt; 15l)	–	> 1	> 1	–
O=[N+]([O-])c1ccc(OC(c2ccccc2)C2CCNCC2)cc1 (stereo in doubt; 15m)	0.0024	> 1	> 1	–
Fc1ccc(OC(c2ccccc2)C2CCNCC2)cc1 (stereo in doubt; 15p)	0.0011	> 1	> 1	–
Brc1ccc(OC(c2ccccc2)C2CCNCC2)cc1 (stereo in doubt; 15r)	0.002	> 1	> 1	–
Fc1cccc(C(Oc2ccccc2F)C2CCNCC2)c1 (stereo in doubt; 15t)	0.0093	> 1	> 1	–
Fc1cccc(OC(c2cccc(F)c2)C2CCNCC2)c1 (stereo in doubt; 15u)	0.0161	> 1	> 1	–
Fc1cccc(OC(c2cccc(F)c2)C2CCNCC2)c1 (stereo in doubt; (-)-15u)	–	> 1	> 1	–
CNCCC(Oc1ccccc1OC)c1ccccc1 (stereo unspecified) [NISOXETINE]	–	> 1	> 1	–
Fc1ccc([C@@H]2CCNC[C@H]2COc2ccc3c(c2)OCO3)cc1 [PAROXETINE]	–	> 1	–	–
COc1ccc(C(CN(C)C)C2(O)CCCCC2)cc1 (stereo unspecified) [VENLAFAXINE]	–	> 1	–	–
